{
  "source": "patent US5126336A",
  "about": "“Antibiotic C-3 catechol-substituted cephalosporin compounds, compositions and method of use thereof” (Bristol-Myers Squibb Company, priority 1990, dated 1992)",
  "key": {"[1]": {"test_system": "Gp-Ia: Penicillin(PC)-sensitive S. aureus (5 strains)", "assay": "MIC, two-fold serial agar dilution, Gp-Ia", "type": "cell-based", "settings": "Staphylococcus aureus, read-out: Geometric mean of MIC", "method": "(§1) Minimum inhibitory concentrations (MICs) of the present series of cephalosporins were determined against 32 strains of test organisms by two-fold serial agar dilution method in Mueller-Hinton agar. Geometric means of MICs were calculated against six groups of the test organisms which are classified as follows and summarized in Table 1.\nGp-Ia Penicillin(PC)-sensitive S. aureus (5 strains)."}, "[2]": {"test_system": "Gp-Ib: Penicillin(PC)-resistant S. aureus (5)", "assay": "MIC, two-fold serial agar dilution, Gp-Ib", "type": "cell-based", "settings": "Staphylococcus aureus, 5 strains, read-out: Geometric mean of MIC", "method": "as §1\nGp-Ib Penicillin(PC)-resistant S. aureus (5)."}, "[3]": {"test_system": "Gn-Ia: Cephalothin(CET)-sensitive E. coli (2), Kl. pneumoniae (1) and Pr. mirabilis (2)", "assay": "MIC, two-fold serial agar dilution, Gn-Ia", "type": "cell-based", "settings": "5 strains, read-out: Geometric mean of MIC", "method": "as §1\nGn-Ia Cephalothin(CET)-sensitive E. coli (2), Kl.\npneumoniae (1) and Pr. mirabilis (2)."}, "[4]": {"test_system": "Gn-Ib: Cephalothin(CET)-resistant E. coli (3) and Kl. pneumoniae (2)", "assay": "MIC, two-fold serial agar dilution, Gn-Ib", "type": "cell-based", "settings": "Escherichia coli", "method": "as §1\nGn-Ib Cephalothin(CET)-resistant E. coli (3) and Kl."}, "[5]": {"test_system": "Gn-II: M.morganii (1), Ent. cloacae (2) and Ser. marcescens (2)", "assay": "MIC, two-fold serial agar dilution, Gn-II", "type": "cell-based", "method": "as §1\nGn-II M.morganii (1), Ent. cloacae (2) and Ser."}, "[6]": {"test_system": "Gn-III: Ps. aeruginosa (7)", "assay": "MIC, two-fold serial agar dilution, Gn-III", "type": "cell-based", "settings": "Pseudomonas aeruginosa, Gn-III, 7 strains, read-out: Geometric mean of MIC", "method": "as §1\nGn-III Ps. aeruginosa (7)."}, "[7]": {"test_system": "E. coli Juhl A15119", "assay": "MIC, agar dilution", "type": "cell-based", "settings": "Escherichia coli, JUHLA15119, 18 h; E. coli Juhl (Table 3); read-out: MIC", "method": "as §1\n(§2) In vivo antibacterial activity was determined against three bacterial infections (S. aureus Smith, E. coli Juhl and P. aeruginosa A9843A) by intramuscular administration to mice just after the bacterial challenge. PD50 values are summarized in Table 3 in comparsion with the MIC values against the corresponding organisms.\n(§3) Medium; MuellerHinton agar (pH = 7.2)\n(§4) Incubation temperature: 32° C., 18 hr\n(§5) Inoculum size; 10^6 cells/ml"}, "[8]": {"test_system": "P. aeruginosa A9843A", "assay": "MIC, agar dilution", "type": "cell-based", "settings": "Pseudomonas aeruginosa, A9843A, 18 h", "method": "as §1, §2, §3, §4, §5"}, "[9]": {"test_system": "S. aureus Smith", "assay": "MIC, agar dilution", "type": "cell-based", "settings": "Staphylococcus aureus, 18 h; S. aureus Smith (Table 3); read-out: MIC", "method": "as §1, §2, §3, §4, §5"}, "[10]": {"test_system": "S. aureus Smith", "assay": "In vivo antibacterial activity, S. aureus Smith infection", "settings": "Staphylococcus aureus, mice, im just after bacterial challenge, read-out: PD50", "method": "as §2"}, "[11]": {"test_system": "E. coli Juhl", "assay": "In vivo antibacterial activity, E. coli Juhl infection", "settings": "Escherichia coli, mice, im just after bacterial challenge, read-out: PD50", "method": "as §2"}, "[12]": {"test_system": "P. aeruginosa A9843A", "assay": "In vivo antibacterial activity, P. aeruginosa A9843A infection", "set-up": "species or system mice", "settings": "Pseudomonas aeruginosa, A9843A, in Mus musculus, im, read-out: PD50", "method": "as §2"}},
  "note": "Where two headings read alike, the source gives them in different places.",
  "data": [
    {"smiles": "CC(C)(O/N=C(\\C(=O)NC1C(=O)N2C(C(=O)[O-])=C(/C=C/C[N+]3(C)Cc4cc(O)c(O)cc4C3)CSC12)c1csc(N)n1)C(=O)O", "note": "(stereo not drawn) [Compound Ia, 7-[(Z)-2-(2-Aminothiazol-4-yl)-2-(1-carboxy-1-methylethoxy-imino)acetamido]-3-[(E)-3-(5,6-dihydroxy-2-methyl-2-iso-indolinio)-1-propen-1-yl]-3-cephem-4-carboxylate]", "values": [
      {"measurement": "MIC", "setting": "[1]; Mueller-Hinton agar", "value": 12.5, "unit": "µg/mL"},
      {"measurement": "MIC", "setting": "[1]; second run", "value": 13, "unit": "µg/mL"},
      {"measurement": "MIC", "setting": "[2]; Mueller-Hinton agar", "value": 12.5, "unit": "µg/mL"},
      {"measurement": "MIC", "setting": "[2]; second run", "value": 13, "unit": "µg/mL"},
      {"measurement": "MIC", "setting": "[3]; Mueller-Hinton agar", "value": 0.2, "unit": "µg/mL"},
      {"measurement": "MIC", "setting": "[3]; second run", "value": 0.23, "unit": "µg/mL"},
      {"measurement": "MIC", "setting": "[4]; read-out: Geometric mean of MIC, Gn-Ib, 5 strains, Mueller-Hinton agar", "value": 0.23, "unit": "µg/mL"},
      {"measurement": "MIC", "setting": "[4]; read-out: Geometric mean of MIC, second run, Gn-Ib, 5 strains", "value": 0.23, "unit": "µg/mL"},
      {"measurement": "MIC", "setting": "[5]; read-out: Geometric mean of MIC", "value": 0.69, "unit": "µg/mL"},
      {"measurement": "Geometric mean of MIC", "setting": "[5]; second run, Gn-II, 5 strains", "value": 0.69, "unit": "µg/mL"},
      {"measurement": "MIC", "setting": "[6]; Mueller-Hinton agar", "value": 1.3, "unit": "µg/mL"},
      {"measurement": "MIC", "setting": "[6]; second run", "value": 0.33, "unit": "µg/mL"},
      {"measurement": "MIC", "setting": "[7]", "value": 0.8, "unit": "µg/mL"},
      {"measurement": "MIC", "setting": "[8]", "value": 1.6, "unit": "µg/mL"},
      {"measurement": "MIC", "setting": "[9]", "value": 12.5, "unit": "µg/mL"},
      {"measurement": "ED50", "setting": "[10]", "value": 0.86, "unit": "mg/kg"},
      {"measurement": "ED50", "setting": "[11]", "value": 0.008, "unit": "mg/kg"},
      {"measurement": "ED50", "setting": "[12]", "value": 2, "unit": "mg/kg"}
    ]}
  ]
}
